Test results published in patent publication US11377467B2, “Crystalline form of gemcitabine” (NuCana plc, priority 2015, dated 2022).

Tests used:
[1] = ProGem1 phase I study: pharmacokinetics (intracellular dFdCTP, dFdU); format: in vivo, human; conditions: relative to levels normally associated with gemcitabine
Source text: (§1) ProGem1 was a first-time-in-human (FTIH), phase I, open label, two stage study to investigate the safety, tolerability, clinical efficacy, pharmacokinetics (PK) and pharmacodynamics (PD) of NUC-1031 given in two parallel dosing schedules in subjects with advanced solid malignancies (EudraCT Number: 2011-005232-26). Subjects had the following tumour types at study entry: colorectal cancer (7 subjects), unknown primary (3), ovarian cancer (12), breast cancer (4), pancreatic cancer (9), cholangiocarcinoma (7), endometrial cancer (3), cervical cancer (2), lung cancer (7), mesothelioma (3), oesophageal cancer (3), cancer of the fallopian tube (1), trophoblast (1), renal cancer (1), gastric cancer (1), anal cancer (1), cancer of the thymus (1) and osteosarcoma (1).

[2] = system: advanced solid malignancies; assay: ProGem1 phase I study: clinical efficacy; format: in vivo, human; conditions: patients with advanced progressive cancers who have exhausted all standard therapeutic options, many resistant or refractory to prior nucleoside analogue therapy
Source text: as §1

[3] = stability stress testing of crystalline form; format: physicochemical; conditions: ambient light, 40° C. and 75% relative humidity, 7 days
Source text: Form VIII appeared physically stable upon stability stress testing.

change in crystalline form upon storage [3]	decrease in purity upon storage [3]	SMILES	levels of the potentially toxic metabolite 2′,2′-difluoro-2′-deoxyuridine (dFdU) released, relative to gemcitabine [1]	anti-tumour activity [2]
–	–	C[C@H](NP(=O)(OC[C@H]1O[C@@H](n2ccc(N)nc2=O)C(F)(F)C1O)Oc1ccccc1)C(=O)OCc1ccccc1 (stereo partly shown) [NUC-1031]	less than half	anti-tumour activity
No change in crystalline form	no decrease in purity	C[C@H](N[P@](=O)(OC[C@H]1O[C@@H](n2ccc(N)nc2=O)C(F)(F)C1O)Oc1ccccc1)C(=O)OCc1ccccc1 (stereo partly shown) [Form VIII]	–	–
